Source: ChEMBL document CHEMBL4765407, “Design, synthesis and high antitumor potential of new unsymmetrical bisacridine derivatives towards human solid tumors, specifically pancreatic cancers and their unique ability to stabilize DNA G-quadruplexes” (Eur J Med Chem, 2020)
pIC50: −log10 of the molar value.

How the values were obtained:
[1] = tested on: BXPC-3; test: Antitumour activity against human BXPC-3 cells xenografted in Crl:Nu-Foxnl nu mouse assessed as inhibition of tumour growth at total effective dose of 30 mg/kg, iv measured on day 37; format: functional; conditions: BXPC-3, iv, 888 h, time 37 day, read-out: TGI
[2] = tested on: PANC-1; test: Antitumour activity against human PANC-1 cells xenografted in Crl:Nu-Foxnl nu mouse assessed as inhibition of tumour growth at total effective dose of 10 mg/kg, iv measured on day 31; format: functional; conditions: PANC-1, iv, 744 h, time 31 day, read-out: TGI
[3] = tested on: DU-145; test: Cytotoxicity against human DU-145 cells assessed as reduction in cell viability measured after 72 hrs by SRB assay; format: functional, cell-based; conditions: DU-145, 72 h
[4] = tested on: HT-29; test: Cytotoxicity against human HT-29 cells assessed as reduction in cell viability measured after 72 hrs by SRB assay; format: functional, cell-based; conditions: HT-29, 72 h
[5] = tested on: PANC-1; test: Antitumour activity against human PANC-1 cells xenografted in Crl:Nu-Foxnl nu mouse assessed as inhibition of tumour growth at total effective dose of 36 mg/kg, iv measured on day 45; format: functional; conditions: PANC-1, iv, 1080 h, time 45 day, read-out: TGI
[6] = tested on: UMUC3; test: Cytotoxicity against human UMUC3 cells assessed as reduction in cell viability measured after 72 hrs by SRB assay; format: functional, cell-based; conditions: UMUC3, 72 h
[7] = tested on: UMUC3; test: Antitumour activity against human UMUC3 cells xenografted in Crl:Nu-Foxnl nu mouse assessed as inhibition of tumour growth at total effective dose of 28 mg/kg, iv measured on day 23; format: functional; conditions: 552 h, time 23 day, read-out: TGI
[8] = tested on: NCI-H460; test: Cytotoxicity against human NCI-H460 cells assessed as reduction in cell viability measured after 72 hrs by SRB assay; format: functional, cell-based; conditions: NCI-H460, 72 h
[9] = tested on: PANC-1; test: Cytotoxicity against human PANC-1 cells assessed as reduction in cell viability measured after 72 hrs by SRB assay; format: functional, cell-based; conditions: PANC-1, 72 h
[10] = tested on: BXPC-3; test: Cytotoxicity against human BXPC-3 cells assessed as reduction in cell viability measured after 72 hrs by SRB assay; format: functional, cell-based; conditions: BXPC-3, 72 h
[11] = tested on: ASPC1; test: Cytotoxicity against human ASPC1 cells assessed as reduction in cell viability measured after 72 hrs by SRB assay; format: functional, cell-based; conditions: ASPC1, 72 h
[12] = tested on: MIA PaCa-2; test: Antitumour activity against human MIA PaCa-2 cells xenografted in Crl:Nu-Foxnl nu mouse assessed as inhibition of tumour growth at total effective dose of 42 mg/kg, iv measured on day 26; format: functional; conditions: MIA PaCa-2, iv, 624 h, time 26 day, read-out: TGI
[13] = tested on: PC-3; test: Cytotoxicity against human PC-3 cells assessed as reduction in cell viability measured after 72 hrs by SRB assay; format: functional, cell-based; conditions: PC-3, 72 h
[14] = tested on: MIA PaCa-2; test: Cytotoxicity against human MIA PaCa-2 cells assessed as reduction in cell viability measured after 72 hrs by SRB assay; format: functional, cell-based; conditions: MIA PaCa-2, 72 h
[15] = tested on: MIA PaCa-2; test: Antitumour activity against human MIA PaCa-2 cells xenografted in Crl:Nu-Foxnl nu mouse assessed as inhibition of tumour growth at total effective dose of 16 mg/kg, iv measured on day 26; format: functional; conditions: MIA PaCa-2, iv, 624 h, time 26 day, read-out: TGI
[16] = tested on: HCT-116; test: Cytotoxicity against human HCT-116 cells assessed as reduction in cell viability measured after 72 hrs by SRB assay; format: functional, cell-based; conditions: HCT-116, 72 h
[17] = tested on: Quadruplex DNA; test: Stabilization of 5'-FAM/3'-TAMRA labeled c-Myc promoter G4 quadruplex DNA FPu18 (unknown origin) assessed as change in melting temperature at 10 microM measured after 15 mins by FRET assay; format: nucleic-acid assay
[18] = tested on: MDA-MB-231; test: Cytotoxicity against human MDA-MB-231 cells assessed as reduction in cell viability measured after 72 hrs by SRB assay; format: functional, cell-based; conditions: MDA-MB-231, 72 h
[19] = tested on: MCF7; test: Cytotoxicity against human MCF7 cells assessed as reduction in cell viability measured after 72 hrs by SRB assay; format: functional, cell-based; conditions: MCF7, 72 h
[20] = tested on: MIA PaCa-2; test: Antitumour activity against human MIA PaCa-2 cells xenografted in Crl:Nu-Foxnl nu mouse assessed as inhibition of tumour growth at total effective dose of 8 mg/kg, ip measured on day 15; format: functional; conditions: MIA PaCa-2, ip, 360 h, time 15 day, read-out: TGI
[21] = tested on: PANC-1; test: Antitumour activity against human PANC-1 cells xenografted in Crl:Nu-Foxnl nu mouse assessed as inhibition of tumour growth at total effective dose of 20 mg/kg, iv measured on day 36; format: functional; conditions: PANC-1, iv, 864 h, time 36 day, read-out: TGI
[22] = tested on: Capan-2; test: Cytotoxicity against human Capan-2 cells assessed as reduction in cell viability measured after 72 hrs by SRB assay; format: functional, cell-based; conditions: Capan-2, 72 h
[23] = Stabilization of ds 5'-FAM-d(TATAGCTATA-HEG-TATAGCTATA)-TAMRA-3' (unknown origin) assessed as change in melting temperature at 10 microM measured after 15 mins by FRET assay; conditions: Homo sapiens
[24] = tested on: Quadruplex DNA; test: Stabilization of 5'-FAM/3'-TAMRA labeled telomeric G4 quadruplex DNA F21T (unknown origin) assessed as change in melting temperature at 10 microM measured after 15 mins by FRET assay; format: nucleic-acid assay
[25] = tested on: Quadruplex DNA; test: Stabilization of 5'-FAM/3'-TAMRA labeled K-Ras G4 quadruplex DNA (unknown origin) assessed as change in melting temperature at 10 microM measured after 15 mins by FRET assay; format: nucleic-acid assay
[26] = tested on: PANC-1; test: Antitumour activity against human PANC-1 cells xenografted in Crl:Nu-Foxnl nu mouse assessed as inhibition of tumour growth at total effective dose of 8 mg/kg, iv measured on day 32; format: functional; conditions: PANC-1, iv, 768 h, time 32 day, read-out: TGI
[27] = tested on: PANC-1; test: Antitumour activity against human PANC-1 cells xenografted in Crl:Nu-Foxnl nu mouse assessed as inhibition of tumour growth at total effective dose of 16 mg/kg, iv measured on day 40; format: functional; conditions: PANC-1, iv, 960 h, time 40 day, read-out: TGI
[28] = tested on: BXPC-3; test: Antitumour activity against human BXPC-3 cells xenografted in Crl:Nu-Foxnl nu mouse assessed as inhibition of tumour growth at total effective dose of 160 mg/kg, iv measured on day 32; format: functional; conditions: BXPC-3, iv, 768 h, time 32 day, read-out: TGI
[29] = tested on: BXPC-3; test: Antitumour activity against human BXPC-3 cells xenografted in Crl:Nu-Foxnl nu mouse assessed as inhibition of tumour growth at total effective dose of 160 mg/kg, iv measured on day 36; format: functional; conditions: BXPC-3, iv, 864 h, time 36 day, read-out: TGI
[30] = tested on: MDA-MB-231; test: Antitumour activity against human MDA-MB-231 cells xenografted in Crl:Nu-Foxnl nu mouse assessed as inhibition of tumour growth at total effective dose of 120 mg/kg, iv measured on day 32; format: functional; conditions: MDA-MB-231, iv, 768 h, time 32 day, read-out: TGI
[31] = tested on: W256; test: Antitumour activity against Walker 256 adenocarcinoma cells implanted in Wistar rat assessed as increase in animal survival rate by measuring T/C ratio at 0.65 mg/kg, ip qd for 3 days administered on day 3,4,5 after tumor cell transplantation; format: functional; conditions: time 3 day
[32] = tested on: NCI-H460; test: Antitumour activity against human NCI-H460 cells xenografted in Crl:Nu-Foxnl nu mouse assessed as inhibition of tumour growth at total effective dose of 5 mg/kg, iv measured on day 15; format: functional; conditions: 360 h, time 15 day, read-out: TGI
[33] = tested on: NCI-H460; test: Antitumour activity against human NCI-H460 cells xenografted in Crl:Nu-Foxnl nu mouse assessed as inhibition of tumour growth at total effective dose of 16 mg/kg, iv measured on day 14; format: functional; conditions: 336 h, time 14 day, read-out: TGI
[34] = tested on: PANC-1; test: Antitumour activity against human PANC-1 cells xenografted in Crl:Nu-Foxnl nu mouse assessed as inhibition of tumour growth at total effective dose of 10 mg/kg, iv measured on day 45; format: functional; conditions: PANC-1, iv, 1080 h, time 45 day, read-out: TGI
[35] = tested on: PANC-1; test: Antitumour activity against human PANC-1 cells xenografted in Crl:Nu-Foxnl nu mouse assessed as inhibition of tumour growth at total effective dose of 16 mg/kg, iv measured on day 47; format: functional; conditions: PANC-1, iv, 1128 h, time 47 day, read-out: TGI
[36] = tested on: ASPC1; test: Antitumour activity against human ASPC1 cells xenografted in Crl:Nu-Foxnl nu mouse assessed as inhibition of tumour growth at total effective dose of 48 mg/kg, iv measured on day 36; format: functional; conditions: 864 h, time 36 day, read-out: TGI
[37] = tested on: PANC-1; test: Antitumour activity against human PANC-1 cells xenografted in Crl:Nu-Foxnl nu mouse assessed as inhibition of tumour growth at total effective dose of 160 mg/kg, iv measured on day 50; format: functional; conditions: PANC-1, iv, 1200 h, time 50 day, read-out: TGI
[38] = tested on: BXPC-3; test: Antitumour activity against human BXPC-3 cells xenografted in Crl:Nu-Foxnl nu mouse assessed as inhibition of tumour growth at total effective dose of 40 mg/kg, iv measured on day 34; format: functional; conditions: BXPC-3, iv, 816 h, time 34 day, read-out: TGI

Compound | pIC50 [3] | pIC50 [4] | pIC50 [6] | pIC50 [8] | pIC50 [9] | pIC50 [10] | pIC50 [11] | pIC50 [13] | pIC50 [14] | pIC50 [16] | ΔTm [17] [°C] | pIC50 [18] | pIC50 [19] | pIC50 [22] | ΔTm [23] [°C] | ΔTm [24] [°C] | ΔTm [25] [°C] | other results
O=c1c2cc(O)ccc2n2cnc3ccc(NCCCN4CCN(CCCNc5c6ccccc6nc6cccc([N+](=O)[O-])c56)CC4)c1c32 | 7.70 | 7.09 | 7.74 | 7.77 | 7.62 | 6.79 | 6.72 | 7.46 | 7.68 | 7.70 | 28.5 | 7.72 | 7.21 | 7.37 | 3.8 | 9.2 | 22.3 | inhibition in vivo at 30 mg/kg [1]: 64%; inhibition in vivo at 10 mg/kg [2]: 71%; inhibition in vivo at 36 mg/kg [5]: 90%; inhibition in vivo at 28 mg/kg [7]: 47%; inhibition in vivo at 42 mg/kg [12]: 50%; inhibition in vivo at 16 mg/kg [15]: 29%; inhibition in vivo at 8 mg/kg [20]: 51%; inhibition in vivo at 20 mg/kg [21]: 59%; inhibition in vivo at 8 mg/kg [26]: 51%; inhibition in vivo at 16 mg/kg [27]: 82%
Cc1cc(NCCCN(C)CCCNc2ccc3ncn4c5ccccc5c(=O)c2c34)c([N+](=O)[O-])c2cc3ccccc3nc12 | 7.19 |  |  | 7.60 | 7.01 | 6.65 | 5.93 |  | 7.06 | 7.19 | 21.9 |  |  |  | 3.4 | 23.3 | 23.7 | inhibition in vivo at 160 mg/kg [28]: 47%; inhibition in vivo at 160 mg/kg [29]: 84%; inhibition in vivo at 120 mg/kg [30]: 62%
CN(CCCNc1c2ccccc2nc2cccc([N+](=O)[O-])c12)CCCNc1ccc([N+](=O)[O-])c2[nH]c3ccccc3c(=O)c12 | 7.62 | 7.17 | 7.54 | 8.00 | 7.55 |  | 7.18 | 7.29 | 6.99 | 6.59 | 19.4 | 7.55 | 6.16 |  |  | 24.5 | 27.4 | T/C [31]: 450%; inhibition in vivo at 5 mg/kg [32]: 14%; inhibition in vivo at 16 mg/kg [33]: 35%; inhibition in vivo at 10 mg/kg [34]: 23%
COc1ccc2c(c1)c(=O)c1c(NCCCN3CCN(CCC(N)c4ccc5nc6ccccc6cc5c4[N+](=O)[O-])CC3)ccc3ncn2c31 (stereo not given) | 7.68 |  |  |  | 7.40 | 7.12 | 6.91 |  | 7.44 | 7.55 | 32.8 | 7.42 |  | 7.57 | 4.6 | 33.3 | 28.3 | inhibition in vivo at 16 mg/kg [35]: 80%; inhibition in vivo at 48 mg/kg [36]: 32%; inhibition in vivo at 160 mg/kg [37]: 64%; inhibition in vivo at 40 mg/kg [38]: 63%
